The structures appear in SMILES notation. Like-named read-outs stand apart in the source and are kept apart here.

For test [1], the target named is T1, LARG-stimulated RhoA nucleotide binding (Homo sapiens, UniProt Q9NZN5).
T1 sequence (Q9NZN5 765-1138): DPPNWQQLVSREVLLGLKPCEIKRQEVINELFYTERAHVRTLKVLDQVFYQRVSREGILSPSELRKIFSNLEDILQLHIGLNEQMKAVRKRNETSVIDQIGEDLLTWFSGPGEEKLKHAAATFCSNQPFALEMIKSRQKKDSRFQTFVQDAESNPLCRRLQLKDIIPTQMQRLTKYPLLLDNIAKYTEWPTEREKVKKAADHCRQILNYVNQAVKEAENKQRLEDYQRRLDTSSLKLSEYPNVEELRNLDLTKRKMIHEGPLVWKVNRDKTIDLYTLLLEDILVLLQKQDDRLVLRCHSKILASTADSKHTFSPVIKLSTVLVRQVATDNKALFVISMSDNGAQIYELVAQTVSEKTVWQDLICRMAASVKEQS
Type of test: biochemical. To be noted: 20 minutes; for Hill Slope [TR-GTPγS]: BODIPY-TR-GTPγS fluorescence polarization dose-response; for IC50: BODIPY-TR-GTPγS 500 nM, LARG 100 nM, RhoA (C189S) 2 μM. For orientation: Polarisation of emitted light reports the rotation of a fluorescent probe.

The target of test [2] is T2, LARG-stimulated RhoA [35S] GTPγS binding (Homo sapiens, UniProt Q9NZN5).
T2 sequence (Q9NZN5 765-1138): T1 sequence (Q9NZN5 765-1138)
Nature of the test: LARG-stimulated RhoA [35S] GTPγS guanine nucleotide binding assay. To be noted: LARG 2 nM, RhoA (C189S) 500 nM, 25 minute time point. Type of test: biochemical.

With `Cc1cccc(NCC(=O)N/N=C\c2c(Br)cc(Br)c(O)c2Br)c1` [CCG-14113, (N′Z)-2-[(3-methylphenyl)amino]-N′-[(2,4,6-tribromo-3-hydroxyphenyl)methylidene]acetohydrazide], in test [1], the “Hill Slope [TR-GTPγS]” value is given as -1.0. The half-inhibitory concentration (IC50) in test [1] (IC50 (μM) [TR-GTPγS]) was 32.2 µM; in test [2] (IC50 (μM) [GTPγS35]) it was 32.8 µM. The “Hill Slope [GTPγS35]” value in test [2] was -7.1.
`O=c1oc2cc(O)ccc2cc1-c1csc(-c2ccc(-c3ccccc3)cc2)n1` [CCG-7167]: the “Hill Slope [TR-GTPγS]” value in test [1] was -1.8. Moreover, the figures for the IC50 in test [1] (read-out: IC50 (μM) [TR-GTPγS]) and in test [2] (read-out: IC50 (μM) [GTPγS35]) were 65.1 µM and 4.2 µM, respectively. Besides, the “Hill Slope [GTPγS35]” value in test [2] is on record as -2.2.
Regarding `O=C1NC(=S)NC(=O)C1=Cc1ccc(-c2ccc(S(=O)(=O)Nc3nccs3)cc2)o1` [CCG-14631, 4-{5-[(4,6-dioxo-2-sulfanylidene-1,3-diazinan-5-ylidene)methyl]furan-2-yl}-N-(1,3-thiazol-2-yl)benzene-1-sulfonamide], in test [1], the “Hill Slope [TR-GTPγS]” value is on record as -0.7. For the same compound, the IC50 in test [1] (IC50 (μM) [TR-GTPγS]) came to 3.1 µM; in test [2] (IC50 (μM) [GTPγS35]), 7 µM. For the same compound, in test [2], the “Hill Slope [GTPγS35]” value is on record as -1.1.
The matching figures for `N=C1S/C(=C\c2ccc(-c3ccccc3[N+](=O)[O-])o2)C(=O)N1c1ccc2c(c1)OCO2` [CCG-13528, (5Z)-3-(2H-1,3-benzodioxol-5-yl)-2-imino-5-{[5-(2-nitrophenyl)furan-2-yl]methylidene}-1,3-thiazolidin-4-one]: -3.4, 39.8 µM, 4.6 µM and -1.8.
As for `Nc1ccc(O)c(-c2nc3cc(N)ccc3s2)c1` [CCG-5849, 4-amino-2-(5-amino-1,3-benzothiazol-2-yl)phenol], in test [1], the “Hill Slope [TR-GTPγS]” value is -1.6. The compound further returned an IC50 in test [1] (IC50 (μM) [TR-GTPγS]) of 10.7 µM.

As usually defined, the IC50 is the midpoint of a concentration-inhibition curve.

These data come from article PMC2698131 (Journal of biomolecular screening, 2009).
